Assay results published in the NIST ThermoML archive (doi:10.1021/je100300s).
Numbers after ± are expanded uncertainties.

Legend:
[1] = refractive index (Na D-line) (dimensionless); details: 101.33 kPa, Liquid, Standard Abbe refractometry
[2] = 101 kPa, Liquid
[3] = refractive index (Na D-line) (dimensionless); xn = mol fraction of the nth substance listed; details: 101 kPa, Liquid, Standard Abbe refractometry, x2 = 0
[4] = xn = mol fraction of the nth substance listed; details: 101 kPa, Liquid, x2 = 0

CC(O)CN (centres undefined) [1-amino-2-propanol]
Details	mass density, [2] [kg/m3]	refractive index, [1]	viscosity, [2] [mPa·s]
293.15 K	–	1.448 ± 0.00037	–
298.15 K	956.51 ± 0.47	1.44609 ± 0.00037	26.68 ± 0.82
303.15 K	952.52 ± 0.48	1.44409 ± 0.00037	20.31 ± 0.63
308.15 K	–	1.44211 ± 0.00037	–
313.15 K	944.42 ± 0.49	1.44009 ± 0.00037	12.51 ± 0.4
318.15 K	–	1.43817 ± 0.00037	–
323.15 K	936.19 ± 0.51	1.43631 ± 0.00037	7.543 ± 0.26
328.15 K	–	1.43405 ± 0.00037	–
333.15 K	927.84 ± 0.53	1.43208 ± 0.00037	5.22 ± 0.19
343.15 K	919.37 ± 0.54	–	3.77 ± 0.14

O [water] + CC(O)CN
Details	mass density, [4] [kg/m3]	refractive index, [3]	viscosity, [4] [mPa·s]
293.15 K	–	1.33298 ± 0.00033	–
298.15 K	–	1.33249 ± 0.00033	0.882 ± 0.035
303.15 K	–	1.33193 ± 0.00033	0.804 ± 0.032
308.15 K	–	1.33136 ± 0.00033	–
313.15 K	–	1.33067 ± 0.00033	0.658 ± 0.027
318.15 K	–	1.3299 ± 0.00033	–
323.15 K	988.03 ± 0.26	1.32906 ± 0.00033	0.551 ± 0.023
328.15 K	–	1.32818 ± 0.00033	–
333.15 K	983.19 ± 0.27	1.32726 ± 0.00033	0.47 ± 0.02
343.15 K	977.75 ± 0.29	–	0.407 ± 0.018
